The source of these data is patent US12331040B2 (Karyopharm Therapeutics Inc., priority 2013, dated 2025).

Molecules are shown by their SMILES. Read-outs that look alike come from different tables or passages of the source.

Experiment in all cases: MTT cell proliferation assay
Format in all cases: cell-based
(In general: Tetrazolium dyes change colour on reduction, which living cells bring about.)

For experiment [1], the system named is MS751 cells. The settings on record: Homo sapiens, MS751, MS751 cells, approximately 64-72 hours incubation. The gist of the method: (§1)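 5,000-10,000 cells/well, overnight attach; 8 conc., 1 nM–30 μM; MTT ~4 h; formazan solubilized, OD 490 nm; % inhibition = (1−(ODo/OD))×100 vs neg. control; mostly duplicate, mean±SE.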
The subject of experiment [2] is 3T3 cells. The settings on record: Mus musculus, NIH3T3, approximately 64-72 hours incubation. The gist of the method:
as §1

In experiment [3] the test system is Z138 cells. The following applies: Homo sapiens, Z-138, Z138 cells, approximately 64-72 hours incubation. Put shortly: as §1
[4] abbreviates: read-out: MTT Assay IC50 MS-751.
[5] abbreviates: read-out: MTT Assay IC50, MS-751.
The mark [6] stands for this setting: read-out: MTT Assay IC50, Z-138.

As to `Nc1ccc(/C=C/C(=O)NCc2cc3cc(-c4ccc(C(=O)N5CCC(F)(F)CC5)cc4)cc(C(F)(F)F)c3o2)cn1` [Compound 566, (E)-3-(6-aminopyridin-3-yl)-N-((5-(4-(4,4-difluoropiperidine-1-carbonyl)phenyl)-7-(trifluoromethyl)benzofuran-2-yl)methyl)acrylamide], the IC50 was 100 to 5000 nM in experiment [1] (setting [4]), greater than 10 µM in experiment [2] (read-out: MTT Assay IC50 3T3) and 100 to 5000 nM in experiment [3] (read-out: MTT Assay IC50 Z-138).

Turning to `Nc1ccc(/C=C/C(=O)NCc2cc3cc(-c4ccc(C(=O)N5CC6(COC6)C5)cc4)cc(C(F)(F)F)c3o2)cn1` [Compound 611, (E)-N-((5-(4-(2-oxa-6-azaspiro[3.3]heptane-6-carbonyl)phenyl)-7-(trifluoromethyl)benzofuran-2-yl)methyl)-3-(6-aminopyridin-3-yl)acrylamide], the results for the IC50 in experiment [1] (setting [4]), in experiment [2] (read-out: MTT Assay IC50 3T3) and in experiment [3] (read-out: MTT Assay IC50 Z-138) were less than 100 nM, greater than 10 µM and less than 100 nM, respectively.

With `O=C(/C=C/c1cccnc1)NCc1cc2cc(-c3ccc(C(=O)N4CC5(COC5)C4)cc3)cc(C(F)(F)F)c2o1` [Compound 688, (E)-N-((5-(4-(2-oxa-6-azaspiro[3.3]heptane-6-carbonyl)phenyl)-7-(trifluoromethyl)benzofuran-2-yl)methyl)-3-(pyridin-3-yl)acrylamide], the IC50 in experiment [1] (setting [5]) lay in the range of 100 to 5000 nM; in experiment [2] (read-out: MTT Assay IC50, 3T3), 0.1 to 5 µM; in experiment [3] (setting [6]) it was 100 to 5000 nM.

As to `Nc1ccc(/C=C/C(=O)NCc2cc3cc(-c4ccc(C(=O)N5CCC[C@H]5C(F)(F)F)cn4)cc(C(F)(F)F)c3o2)cn1` [Compound 622, (S,E)-3-(6-aminopyridin-3-yl)-N-((7-(trifluoromethyl)-5-(5-(2-(trifluoromethyl)pyrrolidine-1-carbonyl)pyridin-2-yl)benzofuran-2-yl)methyl)acrylamide], the IC50 is greater than 10000 nM in experiment [1] (setting [4]), greater than 10 µM in experiment [2] (read-out: MTT Assay IC50 3T3) and 5000 to 10000 nM in experiment [3] (read-out: MTT Assay IC50 Z-138).

Regarding `Nc1ccc(/C=C/C(=O)NCc2cc3cc(-c4ncc(C(=O)N5CCC(F)(F)CC5)cc4F)cc(-c4ccc(F)cc4)c3o2)cn1` [Compound 764, (E)-3-(6-aminopyridin-3-yl)-N-((5-(5-(4,4-difluoropiperidine-1-carbonyl)-3-fluoropyridin-2-yl)-7-(4-fluorophenyl)benzofuran-2-yl)methyl)acrylamide], the IC50 was less than 100 nM in experiment [1] (setting [5]); 0.1 to 5 µM in experiment [2] (read-out: MTT Assay IC50, 3T3); less than 100 nM in experiment [3] (setting [6]).

`Nc1ccc(/C=C/C(=O)NCc2cc3cc(-c4ccc(C(=O)N5CCC(F)(F)CC5)cn4)cc(-c4ccc(F)cc4F)c3o2)cn1` [Compound 710, (E)-3-(6-aminopyridin-3-yl)-N-((7-(2,4-difluorophenyl)-5-(5-(4,4-difluoropiperidine-1-carbonyl)pyridin-2-yl)benzofuran-2-yl)methyl)acrylamide]: the IC50 in experiment [1] (setting [5]) is less than 100 nM; in experiment [2] (read-out: MTT Assay IC50, 3T3), 0.1 to 5 µM; in experiment [3] (setting [6]), less than 100 nM.

`O=C(/C=C/c1cccnc1)NCc1cc2cc(-c3ccc(C(=O)N4CCC(F)(F)CC4)cc3)cc(OC(F)(F)F)c2o1` [Compound 687, (E)-N-((5-(4-(4,4-difluoropiperidine-1-carbonyl)phenyl)-7-(trifluoromethoxy)benzofuran-2-yl)methyl)-3-(pyridin-3-yl)acrylamide]: the IC50 in experiment [1] (setting [5]) was less than 100 nM; in experiment [2] (read-out: MTT Assay IC50, 3T3), 0.1 to 5 µM; in experiment [3] (setting [6]), less than 100 nM.

On to `Cc1c(CNC(=O)/C=C/c2ccc(N)nc2)oc2c(C(F)(F)F)cc(-c3ccc(C(=O)N4CCC(F)(F)CC4)cn3)cc12` [Compound 677, (E)-3-(6-aminopyridin-3-yl)-N-((5-(5-(4,4-difluoropiperidine-1-carbonyl)pyridin-2-yl)-3-methyl-7-(trifluoromethyl)benzofuran-2-yl)methyl)acrylamide], for which the IC50 in experiment [1] (setting [5]) is greater than 10000 nM; in experiment [2] (read-out: MTT Assay IC50, 3T3), greater than 10 µM; in experiment [3] (setting [6]), greater than 10000 nM.

Consider `Nc1ccc(/C=C/C(=O)NCc2cc3cc(-c4ccc(F)c(C(=O)N5CCOCC5)c4)cc(Cl)c3o2)cn1` [Compound 562, (E)-3-(6-aminopyridin-3-yl)-N-((7-chloro-5-(4-fluoro-3-(morpholine-4-carbonyl)phenyl)benzofuran-2-yl)methyl)acrylamide], for which the figures for the IC50 in experiment [1] (setting [4]), in experiment [2] (read-out: MTT Assay IC50 3T3) and in experiment [3] (read-out: MTT Assay IC50 Z-138) were less than 100 nM, greater than 10 µM and less than 100 nM, respectively.

Take `Nc1ccc(/C=C/C(=O)NCc2cc3cc(-c4ccc(S(=O)(=O)N5CC(F)(F)C5)cc4)cc(C(F)(F)F)c3o2)cn1` [Compound 644, (E)-3-(6-aminopyridin-3-yl)-N-((5-(4-(3,3-difluoroazetidin-1-ylsulfonyl)phenyl)-7-(trifluoromethyl)benzofuran-2-yl)methyl)acrylamide]: the IC50 was 5000 to 10000 nM in experiment [1] (setting [4]), greater than 10 µM in experiment [2] (read-out: MTT Assay IC50 3T3) and 100 to 5000 nM in experiment [3] (read-out: MTT Assay IC50 Z-138).

Turning to `Cc1cc(F)ncc1-c1cc(-c2ccc(C(=O)N3CCC(F)(F)CC3)cc2)cc2cc(CNC(=O)/C=C/c3ccc(N)nc3)oc12` [Compound 743, (E)-3-(6-aminopyridin-3-yl)-N-((5-(4-(4,4-difluoropiperidine-1-carbonyl)phenyl)-7-(6-fluoro-4-methylpyridin-3-yl)benzofuran-2-yl)methyl)acrylamide], the IC50 in experiment [1] (setting [5]) was less than 100 nM; in experiment [2] (read-out: MTT Assay IC50, 3T3), 0.1 to 5 µM; in experiment [3] (setting [6]), less than 100 nM.

On to `Nc1ccc(/C=C/C(=O)NCc2cc3cc(-c4ccc(C(=O)N5CCCOCC5)cc4)cc(C(F)(F)F)c3o2)cn1` [Compound 574, (E)-N-((5-(4-(1,4-oxazepane-4-carbonyl)phenyl)-7-(trifluoromethyl)benzofuran-2-yl)methyl)-3-(6-aminopyridin-3-yl)acrylamide], for which the IC50 in experiment [1] (setting [4]) is 100 to 5000 nM; in experiment [2] (read-out: MTT Assay IC50 3T3) it was greater than 10 µM; in experiment [3] (read-out: MTT Assay IC50 Z-138) it was 100 to 5000 nM.

For `Nc1ccc(/C=C/C(=O)NCc2cc3cc(-c4ccc(C(=O)N5CCC(F)(F)CC5)cn4)cc(-c4nnco4)c3o2)cn1` [Compound 662, (E)-3-(6-aminopyridin-3-yl)-N-((5-(5-(4,4-difluoropiperidine-1-carbonyl)pyridin-2-yl)-7-(1,3,4-oxadiazol-2-yl)benzofuran-2-yl)methyl)acrylamide], the IC50 was 100 to 5000 nM in experiment [1] (setting [5]); greater than 10 µM in experiment [2] (read-out: MTT Assay IC50, 3T3); 100 to 5000 nM in experiment [3] (setting [6]).

With `Nc1ccc(/C=C/C(=O)NCc2cc3cc(C4CC4C(=O)N4CCC(F)(F)CC4)cc(C(F)(F)F)c3o2)cn1` (stereo not drawn) [Compound 695, (E)-3-(6-aminopyridin-3-yl)-N-((5-(2-(4,4-difluoropiperidine-1-carbonyl)cyclopropyl)-7-(trifluoromethyl)benzofuran-2-yl)methyl)acrylamide], the concentration for half-maximal inhibition (IC50) in experiment [1] (setting [5]) was 100 to 5000 nM; in experiment [2] (read-out: MTT Assay IC50, 3T3), greater than 10 µM; in experiment [3] (setting [6]) it was 100 to 5000 nM.

For the compound `CC1(F)CN(C(=O)c2ccc(-c3cc(Cl)c4oc(CNC(=O)/C=C/c5ccc(N)nc5)cc4c3)cc2)C1` [Compound 599, (E)-3-(6-aminopyridin-3-yl)-N-((7-chloro-5-(4-(3-fluoro-3-methylazetidine-1-carbonyl)phenyl)benzofuran-2-yl)methyl)acrylamide], the IC50 in experiment [1] (setting [4]) lay in the range of 100 to 5000 nM; in experiment [2] (read-out: MTT Assay IC50 3T3) it was 5 to 10 µM; in experiment [3] (read-out: MTT Assay IC50 Z-138), 100 to 5000 nM.

For `CN1CCN(C(=O)c2cnc(-c3cc(Cl)c4oc(CNC(=O)/C=C/c5ccc(N)nc5)cc4c3)nc2)CC1` [Compound 586], the IC50 was 100 to 5000 nM in experiment [1] (setting [4]), greater than 10 µM in experiment [2] (read-out: MTT Assay IC50 3T3) and 100 to 5000 nM in experiment [3] (read-out: MTT Assay IC50 Z-138).

Usually IC50 stands for the concentration that inhibits the measured activity by half.
